Experimental data reported in patent publication US4443436A, “C-20-Modified macrolide derivatives of the macrolide antibiotics tylosin, desmycosin, macrocin, and lactenocin” (Eli Lilly and Company, priority 1982, dated 1984).
Converted amounts (≈) assume the structure as drawn. Where two headings read alike, the source gives them in different places.

Tests used:
Staphylococcus aureus = assay: MIC, broth-dilution microtiter test, Staphylococcus aureus; format: cell-based
From the text: (§1) The MIC's in Table X were obtained using conventional broth-dilution microtiter tests.

Streptococcus bovis 80 = assay: MIC, broth-dilution microtiter test, Streptococcus bovis 80; format: cell-based
From the text: as §1

[1] = test system: Streptococcus pneumoniae Park I; assay: microbe, parasite or virus in culture; format: cell-based
[2] = test system: Staphylococcus aureus X1.1; assay: MIC, standard agar-dilution assay, Staphylococcus aureus X1.1; format: cell-based
[3] = test system: Streptococcus Group D X66; assay: MIC, standard agar-dilution assay, Streptococcus Group D X66; format: cell-based; conditions: Streptococcus Group D X66, agar dilution
[4] = test system: Haemophilus influenzae R252; assay: MIC, standard agar-dilution assay, Haemophilus influenzae R252; format: cell-based; conditions: Haemophilus influenzae R252, ampicillin-resistant strain
Streptococcus Group 9960 = assay: MIC, standard agar-dilution assay, Streptococcus Group 9960; format: cell-based; conditions: Streptococcus Group 9960, agar dilution
[5] = test system: Streptococcus pyogenes C203; assay: In vivo protection of mice experimentally infected with S. pyogenes C203; conditions: mice, doses given 1 and 4 hours post-infection; for ED50: Streptococcus pyogenes
Experimental: The C-20 modified derivatives of this invention have shown in vivo antimicrobial activity against experimentally-induced infections in laboratory animals. When two doses of test compound were administered to mice experimentally infected with S. pyogenes C203, the activity observed was measured as an ED50 value [effective dose in mg/kg to protect 50% of the test animals: see Warren Wick, et al., J. Bacteriol. 81, 233-235 (1961)].

[6] = test system: Staphylococcus aureus S13E; assay: MIC, standard agar-dilution assay, Staphylococcus aureus S13E; format: cell-based
Mycoplasma hyorhinis = assay: MIC, broth-dilution microtiter test, Mycoplasma hyorhinis; format: cell-based
From the text: as §1

[7] = test system: Staphylococcus epidermidis EPI1; assay: MIC, standard agar-dilution assay, Staphylococcus epidermidis EPI1; format: cell-based
[8] = test system: Haemophilus influenzae Holt; assay: MIC, standard agar-dilution assay, Haemophilus influenzae Holt; format: cell-based; conditions: Haemophilus influenzae Holt, ampicillin-sensitive strain
Mycoplasma gallisepticum = assay: MIC, broth-dilution microtiter test, Mycoplasma gallisepticum; format: cell-based
From the text: as §1

[9] = test system: Staphylococcus epidermidis EPI2; assay: MIC, standard agar-dilution assay, Staphylococcus epidermidis EPI2; format: cell-based
[10] = test system: Pasteurella multocida 60A; assay: MIC, broth-dilution microtiter test, Pasteurella multocida 60A; format: cell-based; conditions: Pasteurella multocida 60A, avian isolate, broth-dilution microtiter
From the text: as §1

[11] = test system: Streptococcus pyogenes C203; assay: MIC, standard agar-dilution assay, Streptococcus pyogenes C203; format: cell-based
[12] = test system: Pasteurella multocida 17E; assay: MIC, broth-dilution microtiter test, Pasteurella multocida 17E; format: cell-based; conditions: Pasteurella multocida 17E, bovine isolate, broth-dilution microtiter
From the text: as §1

[13] = test system: Pasteurella hemolytica 22C; assay: MIC, broth-dilution microtiter test, Pasteurella hemolytica 22C; format: cell-based; conditions: Pasteurella hemolytica 22C, broth-dilution microtiter
From the text: as §1

[14] = test system: Staphylococcus aureus V41; assay: MIC, standard agar-dilution assay, Staphylococcus aureus V41; format: cell-based
[15] = test system: Staphylococcus aureus X400; assay: MIC, standard agar-dilution assay, Staphylococcus aureus X400; format: cell-based
Mycoplasma synoviae = assay: MIC, broth-dilution microtiter test, Mycoplasma synoviae; format: cell-based; conditions: Mycoplasmopsis synoviae
From the text: as §1

[16] = C203, sc, subcutaneous, read-out: ED50, Subcutaneous
[17] = C203, oral, read-out: ED50, Oral
[18] = Staphylococcus epidermidis, EPI1
[19] = Streptococcus equinus, Streptococcus bovis 80, broth-dilution microtiter, read-out: MIC
[20] = Mycoplasma hyorhinis, broth-dilution microtiter, read-out: MIC

**Q.** With CCC(=O)OC1C(OC2C(CCCl)CC(C)C(=O)C=CC(C)=CC(COC3OC(C)C(O)C(OC)C3OC)C(CC)OC(=O)CC(O)C2C)OC(C)C(OC2CC(C)(O)C(O)C(C)O2)C1N(C)C (stereo not shown) [Compound 63, 20-DH-DO-20-Chloro-2'-O-propionyltylosin] as the molecule, how does the MIC (Staphylococcus aureus; broth-dilution microtiter) read?
**A.** 6.25 µg/mL (≈ 6.3 µM)

**Q.** What about the MIC (Streptococcus bovis 80; Streptococcus bovis 80, broth-dilution microtiter) of the same molecule?
**A.** 25 µg/mL (≈ 25.2 µM)

**Q.** What about the MIC ([1]; Streptococcus pneumoniae Park I, agar dilution) of the same molecule?
**A.** 16 µg/mL (≈ 16.1 µM)

**Q.** And the MIC ([2]; Staphylococcus aureus X1.1, agar dilution)?
**A.** 1 µg/mL (≈ 1.01 µM)

**Q.** What about the MIC [3] of the same molecule?
**A.** -- (Not active at 128 mcg/ml, the highest level tested)

**Q.** What about the MIC ([4]; agar dilution) of the same molecule?
**A.** -- (Not active at 128 mcg/ml, the highest level tested)

**Q.** What about the MIC (Streptococcus Group 9960) of the same molecule?
**A.** -- (Not active at 128 mcg/ml, the highest level tested)

**Q.** And the “ED50, Oral” value ([5]; oral)?
**A.** 22 mg/kg × 2

**Q.** And the “ED50, Subcutaneous” value ([5]; subcutaneous)?
**A.** > 6.3 mg/kg × 2

**Q.** What about the MIC ([6]; Staphylococcus aureus S13E, agar dilution) of the same molecule?
**A.** 1 µg/mL (≈ 1.01 µM)

**Q.** What about the MIC (Mycoplasma hyorhinis; Mycoplasma hyorhinis, broth-dilution microtiter) of the same molecule?
**A.** 50 µg/mL (≈ 50.4 µM)

**Q.** What about the MIC ([7]; Staphylococcus epidermidis EPI1, agar dilution) of the same molecule?
**A.** 1 µg/mL (≈ 1.01 µM)

**Q.** What about the MIC ([8]; agar dilution) of the same molecule?
**A.** -- (Not active at 128 mcg/ml, the highest level tested)

**Q.** What about the MIC (Mycoplasma gallisepticum; Mycoplasma gallisepticum, broth-dilution microtiter) of the same molecule?
**A.** 1.56 µg/mL (≈ 1.57 µM)

**Q.** And the MIC ([9]; Staphylococcus epidermidis EPI2, agar dilution)?
**A.** 1 µg/mL (≈ 1.01 µM)

**Q.** And the MIC [10]?
**A.** -- (Not active at 50 mcg/ml, the highest level tested)

**Q.** And the MIC ([11]; Streptococcus pyogenes C203, agar dilution)?
**A.** 0.5 µg/mL (≈ 0.504 µM)

**Q.** And the MIC [12]?
**A.** -- (Not active at 50 mcg/ml, the highest level tested)

**Q.** And the MIC [13]?
**A.** -- (Not active at 50 mcg/ml, the highest level tested)

**Q.** And the MIC ([14]; Staphylococcus aureus V41, penicillin-resistant strain, agar dilution)?
**A.** 1 µg/mL (≈ 1.01 µM)

**Q.** What about the MIC ([15]; Staphylococcus aureus X400, methicillin-resistant strain, agar dilution) of the same molecule?
**A.** 2 µg/mL (≈ 2.01 µM)

**Q.** CCC1OC(=O)CC(O)C(C)C(OC2OC(C)C(O)C(N(C)C)C2O)C(CCI)CC(C)C(=O)C=CC(C)=CC1COC1OC(C)C(O)C(O)C1OC (stereo not shown) [Compound 57, 20-DH-DO-20-Iodolactenocin] was tested. Which MIC (Staphylococcus aureus) did it give?
**A.** 0.78 µg/mL (≈ 0.897 µM)

**Q.** And the MIC (Streptococcus bovis 80; Streptococcus equinus, 80)?
**A.** 3.12 µg/mL (≈ 3.59 µM)

**Q.** And the MIC ([1]; Streptococcus pneumoniae)?
**A.** 4 µg/mL (≈ 4.6 µM)

**Q.** What about the MIC ([2]; Staphylococcus aureus, X1.1) of the same molecule?
**A.** 0.5 µg/mL (≈ 0.575 µM)

**Q.** And the MIC ([3]; read-out: MIC)?
**A.** 16 µg/mL (≈ 18.4 µM)

**Q.** And the MIC (Mycoplasma synoviae)?
**A.** 1.56 µg/mL (≈ 1.79 µM)

**Q.** What about the MIC (Streptococcus Group 9960; GROUP9960, read-out: MIC) of the same molecule?
**A.** 16 µg/mL (≈ 18.4 µM)

**Q.** And the ED50 [5, 16]?
**A.** 5.2 mg/kg

**Q.** And the ED50 [5, 17]?
**A.** 79 mg/kg

**Q.** And the MIC ([6]; Staphylococcus aureus, S13E)?
**A.** 0.5 µg/mL (≈ 0.575 µM)

**Q.** And the MIC (Mycoplasma hyorhinis; Mycoplasma)?
**A.** 50 µg/mL (≈ 57.5 µM)

**Q.** And the MIC [7, 18]?
**A.** 0.5 µg/mL (≈ 0.575 µM)

**Q.** What about the MIC (Mycoplasma gallisepticum; Mycoplasmoides gallisepticum) of the same molecule?
**A.** 3.12 µg/mL (≈ 3.59 µM)

**Q.** And the MIC ([9]; Staphylococcus epidermidis, EPI2)?
**A.** 0.5 µg/mL (≈ 0.575 µM)

**Q.** What about the MIC ([10]; read-out: MIC) of the same molecule?
**A.** 25 µg/mL (≈ 28.7 µM)

**Q.** What about the MIC ([11]; Streptococcus pyogenes, C203) of the same molecule?
**A.** 0.5 µg/mL (≈ 0.575 µM)

**Q.** And the MIC ([12]; read-out: MIC)?
**A.** 25 µg/mL (≈ 28.7 µM)

**Q.** And the MIC ([13]; read-out: MIC)?
**A.** 25 µg/mL (≈ 28.7 µM)

**Q.** And the MIC ([14]; Staphylococcus aureus, V41)?
**A.** 0.5 µg/mL (≈ 0.575 µM)

**Q.** And the MIC ([15]; Staphylococcus aureus, X400)?
**A.** 1 µg/mL (≈ 1.15 µM)

**Q.** How did the MIC (Staphylococcus aureus) turn out when CCC1OC(=O)CC(O)C(C)C(OC2OC(C)C(OC3CC(C)(O)C(O)C(C)O3)C(N(C)C)C2O)C(CCOS(=O)(=O)c2ccc(C)cc2)CC(C)C(=O)C=CC(C)=CC1COC1OC(C)C(O)C(O)C1OC (stereo not shown) [Compound 56, 20-DH-20-O-(p-Toluenesulfonyl)macrocin] was run?
**A.** 3.12 µg/mL (≈ 2.95 µM)

**Q.** What about the MIC (Streptococcus bovis 80; [19]) of the same molecule?
**A.** 6.25 µg/mL (≈ 5.91 µM)

**Q.** What about the MIC (Mycoplasma synoviae) of the same molecule?
**A.** 12.5 µg/mL (≈ 11.8 µM)

**Q.** What about the MIC (Mycoplasma hyorhinis; [20]) of the same molecule?
**A.** > 50 µg/mL

**Q.** What about the MIC (Mycoplasma gallisepticum; Mycoplasmoides gallisepticum) of the same molecule?
**A.** 1.56 µg/mL (≈ 1.47 µM)

**Q.** What about the MIC ([10]; read-out: MIC) of the same molecule?
**A.** > 50 µg/mL

**Q.** What about the MIC ([12]; read-out: MIC) of the same molecule?
**A.** > 50 µg/mL

**Q.** What about the MIC ([13]; read-out: MIC) of the same molecule?
**A.** > 50 µg/mL

**Q.** Which MIC (Staphylococcus aureus) does the source give for CCC1OC(=O)CC(O)C(C)C(OC2OC(C)C(OC3CC(C)(O)C(O)C(C)O3)C(N(C)C)C2O)C(CCN=[N+]=[N-])CC(C)C(=O)C=CC(C)=CC1COC1OC(C)C(O)C(OC)C1OC (stereo not shown) [Compound 2, 20-DH-DO-20-Azidotylosin] here?
**A.** 3.12 µg/mL (≈ 3.31 µM)

**Q.** And the MIC (Streptococcus bovis 80; [19])?
**A.** 50 µg/mL (≈ 53 µM)

**Q.** What about the MIC ([1]; Streptococcus pneumoniae) of the same molecule?
**A.** 32 µg/mL (≈ 33.9 µM)

**Q.** What about the MIC ([2]; Staphylococcus aureus, X1.1) of the same molecule?
**A.** 2 µg/mL (≈ 2.12 µM)

**Q.** And the MIC ([3]; read-out: MIC)?
**A.** 128 µg/mL (≈ 136 µM)

**Q.** And the MIC (Mycoplasma synoviae)?
**A.** 12.5 µg/mL (≈ 13.3 µM)

**Q.** What about the MIC ([4]; read-out: MIC) of the same molecule?
**A.** > 128 µg/mL

**Q.** What about the MIC (Streptococcus Group 9960; GROUP9960, read-out: MIC) of the same molecule?
**A.** 128 µg/mL (≈ 136 µM)

**Q.** What about the ED50 [5, 16] of the same molecule?
**A.** > 6.3 mg/kg

**Q.** And the ED50 [5, 17]?
**A.** 18 mg/kg

**Q.** And the MIC ([6]; Staphylococcus aureus, S13E)?
**A.** 1 µg/mL (≈ 1.06 µM)

**Q.** What about the MIC (Mycoplasma hyorhinis; [20]) of the same molecule?
**A.** > 50 µg/mL

**Q.** What about the MIC [7, 18] of the same molecule?
**A.** 1 µg/mL (≈ 1.06 µM)

**Q.** And the MIC ([8]; read-out: MIC)?
**A.** > 128 µg/mL

**Q.** And the MIC (Mycoplasma gallisepticum; Mycoplasmoides gallisepticum)?
**A.** 1.56 µg/mL (≈ 1.65 µM)

**Q.** What about the MIC ([10]; read-out: MIC) of the same molecule?
**A.** > 50 µg/mL

**Q.** What about the MIC ([11]; Streptococcus pyogenes, C203) of the same molecule?
**A.** 2 µg/mL (≈ 2.12 µM)

**Q.** What about the MIC ([12]; read-out: MIC) of the same molecule?
**A.** > 50 µg/mL

**Q.** What about the MIC ([13]; read-out: MIC) of the same molecule?
**A.** > 50 µg/mL

**Q.** What about the MIC ([14]; Staphylococcus aureus, V41) of the same molecule?
**A.** 1 µg/mL (≈ 1.06 µM)

**Q.** And the MIC ([15]; Staphylococcus aureus, X400)?
**A.** 2 µg/mL (≈ 2.12 µM)
